Activity calls are given as the source filed them. No cut-off for these calls is given here.
Columns and labels:
[1] = Stability in human plasma assessed as compound remaining at 2 uM measured after 60 mins by LC-MS/MS analysis; assay type: ADME, cell-free; details: read-out: Stability
[2] = test system: Vero C1008; test: (§1) Cytotoxicity against African green monkey Vero E6 cells assessed as cell viability at 5 uM incubated for 48 hrs by MTT assay; assay type: toxicity, cell-based; details: chlorocebus sabaeus, vero c1008, 48 h, 5 µM
[3] = Microsomal stability in human liver microsomes assessed as compound remaining at 100 uM preincubated for 15 mins followed by NADPH addition measured after 60 mins by LC-MS/MS analysis; assay type: ADME, Microsome; details: time 75 min, read-out: Stability
[4] = test system: SARS-CoV-2; test: (§2) Antiviral activity against SARS CoV-2 Wuhan infected in African green monkey Vero E6 cells assessed as inhibition of viral replication pretreated for 15 mins followed by compound removal and induction of viral infection for 1 hr and subsequent removal of inoculum and further addition of media containing compound measured after 24 hrs by cell-based ELISA; assay type: functional, organism-based; details: for IC50: Severe acute respiratory syndrome coronavirus 2, Wuhan, Vero C1008
[5] = Stability in human plasma assessed as half life at 2 uM measured up to 120 mins by LC-MS/MS analysis; assay type: ADME, cell-free
[6] = Microsomal stability in mouse liver microsomes assessed as intrinsic clearance measured per mg protein at 100 uM preincubated for 15 mins followed by NADPH addition measured up to 60 mins by LC-MS/MS analysis; assay type: ADME, Microsome; details: time < 75 min, read-out: CLH
[7] = Lipophilicity, LogD of compound in sodium phosphate buffer/n-octanol incubated for 3 hrs by LC-UV analysis; assay type: physicochemical
[8] = Microsomal stability in human liver microsomes assessed as half life at 100 uM preincubated for 15 mins followed by NADPH addition measured up to 60 mins by LC-MS/MS analysis; assay type: ADME, Microsome; details: time < 75 min
[9] = biological target: Voltage-gated inwardly rectifying potassium channel KCNH2 (Homo sapiens, UniProt Q12809); test: Inhibition of hERG extracted from membrane (unknown origin) incubated for 4 hrs by fluorescence polarization assay; assay type: toxicity, cell membranes
Voltage-gated inwardly rectifying potassium channel KCNH2, sequence (Q12809 whole entry): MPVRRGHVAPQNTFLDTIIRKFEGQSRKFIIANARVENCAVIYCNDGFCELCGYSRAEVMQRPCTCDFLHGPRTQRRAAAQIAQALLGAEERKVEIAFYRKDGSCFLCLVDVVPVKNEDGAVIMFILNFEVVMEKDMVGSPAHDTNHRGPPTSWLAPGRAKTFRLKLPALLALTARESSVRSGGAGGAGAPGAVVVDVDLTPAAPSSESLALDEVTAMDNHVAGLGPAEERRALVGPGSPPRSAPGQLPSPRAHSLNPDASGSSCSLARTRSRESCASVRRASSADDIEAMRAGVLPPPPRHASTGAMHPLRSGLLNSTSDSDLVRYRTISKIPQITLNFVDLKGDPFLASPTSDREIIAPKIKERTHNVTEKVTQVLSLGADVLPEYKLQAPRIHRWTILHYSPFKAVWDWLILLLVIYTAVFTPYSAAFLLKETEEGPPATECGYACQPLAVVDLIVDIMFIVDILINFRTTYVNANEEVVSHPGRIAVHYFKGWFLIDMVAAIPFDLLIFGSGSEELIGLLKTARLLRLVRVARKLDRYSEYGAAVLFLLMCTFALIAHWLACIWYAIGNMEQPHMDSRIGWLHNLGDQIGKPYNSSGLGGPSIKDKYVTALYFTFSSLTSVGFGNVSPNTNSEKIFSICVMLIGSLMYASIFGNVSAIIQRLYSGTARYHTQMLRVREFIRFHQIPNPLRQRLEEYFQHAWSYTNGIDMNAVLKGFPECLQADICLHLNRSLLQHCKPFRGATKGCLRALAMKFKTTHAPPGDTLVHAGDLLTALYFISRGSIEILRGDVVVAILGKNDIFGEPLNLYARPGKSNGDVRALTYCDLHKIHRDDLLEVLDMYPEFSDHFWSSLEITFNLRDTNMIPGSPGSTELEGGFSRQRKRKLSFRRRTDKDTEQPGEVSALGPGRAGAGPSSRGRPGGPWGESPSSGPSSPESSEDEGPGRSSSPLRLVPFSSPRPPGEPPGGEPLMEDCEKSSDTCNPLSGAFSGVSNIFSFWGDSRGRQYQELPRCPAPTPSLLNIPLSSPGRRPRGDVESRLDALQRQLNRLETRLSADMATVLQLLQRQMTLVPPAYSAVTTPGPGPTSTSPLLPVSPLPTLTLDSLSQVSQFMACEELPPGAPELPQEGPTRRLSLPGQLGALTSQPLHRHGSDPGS

[10] = Stability in mouse plasma assessed as half life at 2 uM measured up to 120 mins by LC-MS/MS analysis; assay type: ADME, cell-free
[11] = Microsomal stability in mouse liver microsomes assessed as half life at 100 uM preincubated for 15 mins followed by NADPH addition measured up to 60 mins by LC-MS/MS analysis; assay type: ADME, Microsome; details: time < 75 min
[12] = Microsomal stability in mouse liver microsomes assessed as compound remaining at 100 uM preincubated for 15 mins followed by NADPH addition measured after 60 mins by LC-MS/MS analysis; assay type: ADME, Microsome; details: time 75 min, read-out: Stability
[13] = Microsomal stability in human liver microsomes assessed as intrinsic clearance measured per mg protein at 100 uM preincubated for 15 mins followed by NADPH addition measured up to 60 mins by LC-MS/MS analysis; assay type: ADME, Microsome; details: time < 75 min, read-out: CLH
[14] = Stability in mouse plasma assessed as compound remaining at 2 uM measured after 60 mins by LC-MS/MS analysis; assay type: ADME, cell-free; details: read-out: Stability
[15] = Stability in mouse plasma assessed as compound remaining at 2 uM measured after 2 hrs by LC-MS/MS analysis; assay type: ADME, cell-free; details: read-out: Stability
[16] = Stability in human plasma assessed as compound remaining at 2 uM measured after 2 hrs by LC-MS/MS analysis; assay type: ADME, cell-free; details: read-out: Stability
[17] = test system: SARS-CoV-2; test: as §2, with “virus inactivation at 5 uM” for “inhibition of viral replication”, “48” for “24”, “RT-qPCR analysis relative to control” for “cell-based ELISA”; assay type: functional, Severe acute respiratory syndrome coronavirus 2; details: time 48.25 hrs
[18] = test system: SARS-CoV-2; test: Potency index, ratio of Arbidol IC50 to test compound IC50 for antiviral activity against SARS CoV-2 Wuhan infected in African green monkey Vero E6 cells assessed as inhibition of viral replication pretreated for 15 mins followed by compound removal and induction of viral infection for 1 hr and subsequent removal of inoculum and further addition of media containing compound measured after 24 hrs …; assay type: functional, Severe acute respiratory syndrome coronavirus 2; details: time 24.25 hrs
[19] = as §1; assay type: toxicity, cell-based, Vero C1008; details: chlorocebus sabaeus, Vero E6 cells, read-out: Activity
[20] = test system: SARS-CoV-2; test: as §2, with “virus inactivation at 1 uM” for “inhibition of viral replication”, “48” for “24”, “RT-qPCR analysis relative to control” for “cell-based ELISA”; assay type: functional

Compound | remaining at 1 h, 2 µM [1] | Activity [2] | remaining at 1 h, 100 µM [3] | IC50 [4] | half-life at 2 µM [5] | microsomal CLint at 100 µM [6] | logD at 3 h [7] | half-life at 100 µM [8] | IC50 [9] | half-life at 2 µM [10] | half-life at 100 µM [11] | remaining at 1 h, 100 µM [12] | microsomal CLint at 100 µM [13] | remaining at 1 h, 2 µM [14] | Activity [17] | Ratio IC50 [18] | other results
CN(C)CCCCNC(=O)c1c(CSc2ccc(F)cc2)n(C)c2cc(Br)c(O)cc12 | 70.6% | Non-toxic | 28% | 1800 nM | < 2 h | 25.8 µL/min/mg | 1.91 | 0.52 h | 9850 nM | 1 h | 0.448 h | 21% | 22.2 µL/min/mg | 41.6% |  |  | 
CCOC(=O)c1c(CSc2ccc(C)cc2C)n(Cc2cccc3ccccc23)c2cc(Br)c(O)cc12 |  | Non-toxic | 96.7% | 240 nM | > 4 h | > 14.4 µL/min/mg | 3.76 | > 2 h | > 30000 nM | 3 h | > 2 h | 75.5% | 20.2 µL/min/mg |  | <90% |  | remaining at 2 h, 2 µM [15]: 70.3%; remaining at 2 h, 2 µM [16]: 69.1%
Cc1ccc(Cn2c(CSc3c(C)cc(C)cc3C)c(C(=O)NC(C)(C)C)c3cc(O)c(Br)cc32)cc1 | 116% | Non-toxic | 1.1% | 560 nM | > 2 h | 143 µL/min/mg | 3.54 | 0.162 h | > 30000 nM | > 2 h | 0.0955 h | 0.73% | 242 µL/min/mg | 96.9% |  | ~13 | 
CCOC(=O)c1c(CSc2ccc(F)cc2C)n(C)c2cc(Br)c(O)cc12 |  |  |  |  |  |  |  |  |  |  |  |  |  |  | 75% |  | viability at 48 h, 5 µM [19]: 70%; inhibition ([4]; Severe acute respiratory syndrome coronavirus 2, time 24.25 hrs): inactive; Activity ([20]; Severe acute respiratory syndrome coronavirus 2, time 48.25 hrs): Not active; No Significant Effect Observed
CCOC(=O)c1c(CSc2c(C)cc(C)cc2C)n(Cc2ccc(C)cc2)c2cc(Br)c(O)cc12 | 87.8% | Non-toxic | 8.56% | 1500 nM | > 2 h | 80.2 µL/min/mg | 3.03 | 0.288 h | > 30000 nM | > 2 h | 0.119 h | 1.23% | 193 µL/min/mg | 111% | >99% |  | 
Cc1ccc(Cn2c(CSc3c(C)cc(C)cc3C)c(C(=O)NC3CCN(Cc4ccccc4)CC3)c3cc(O)c(Br)cc32)cc1 |  | Non-toxic |  | 1500 nM |  |  |  |  |  |  |  |  |  |  |  | ~13 | 
CCOC(=O)c1c(CSc2ccc(C)cc2C)n(Cc2ccc(C)cc2)c2cc(Br)c(O)c(CN(C)C)c12 |  | Non-toxic | 0.31% | 1500 nM | > 2 h | 273 µL/min/mg | 3.98 | 0.0452 h | 6030 nM | > 2 h | 0.0846 h | 0.314% | 512 µL/min/mg |  | <99.9% |  | remaining at 2 h, 2 µM [15]: 88.4%; remaining at 2 h, 2 µM [16]: 115%; Activity ([20]; time 48.25 hrs): <99.9%
Cc1ccc(Cn2c(CSc3c(C)cc(C)cc3C)c(C(=O)NC3CCN(C(C)C)CC3)c3cc(O)c(Br)cc32)cc1 | 57.6% | Non-toxic | 59.4% | 750 nM | > 4 h | 9.64 µL/min/mg | 3.95 | 1.5 h | 10600 nM | > 4 h | 2 h | 80.1% | 15.5 µL/min/mg | 74.8% |  | ~13 | 

From ChEMBL document CHEMBL6134895, “Strategic Design and Optimization of Umifenovir Analogues: Balancing Antiviral Efficacy and hERG Toxicity against SARS-CoV-2” (J Med Chem, 2025)
